# From patent US20240252445A1, “COMPOSITIONS AND METHODS OF PROMOTING AC[…] […] AND DIAGNOSTIC AGENTS IN THE HEART” (CASE WESTERN RESERVE UNIVERSITY, priority 2021, published 2024)
# Conditions: NBDG 1 mg/kg
smiles,measurement,setting,value
O=[N+]([O-])c1ccc(N[C@H]2C(O)O[C@H](CO)[C@@H](O)[C@@H]2O)c2nonc12 (some centres unmarked) [NBDG],NBDG fluorescence localisation,"animals pre-injected with ePL, after organ perfusion",highly localized in the heart
same,NBDG fluorescence in the heart in competition with unlabeled glucose,"ePL pre-injected, unlabeled glucose 500 mg/kg",diminished
